# Data reported in US20230330251A1, “METHODS FOR TREATING CANCERS WITH ANTIBODY DRUG CONJUGATES (ADC) THAT BIND TO 191P4D12 PROTEINS” (AGENSYS, INC., priority 2020, published 2023).
# Assays:
# [1] = tested on: subjects with previously treated locally advanced or metastatic urothelial cancer; assay: EV-301 phase 3 study: overall survival (OS), enfortumab vedotin vs chemotherapy; type: in vivo, human
# Source text: Subjects will be stratified according to the following: Eastern Cooperative Oncology Group Performance Status (ECOG PS), regions of the world and liver metastasis.
# OS is the primary endpoint. OS is defined as the time from randomization to the date of death. Secondary endpoints include PFS1, ORR, DOR, DCR, safety and QOL/PRO.
# Subjects in Arm A will receive EV on Days 1, 8 and 15 of each 28-day cycle. […] Within the control arm, the overall proportion of subjects receiving vinflunine will be capped at approximately 35%. Subjects will continue to receive study treatment until radiological disease progression as determined per investigator assessment or other discontinuation criteria are met or upon study termination, or study completion, whichever occurs first. No on-study crossover will be allowed. This study will consist of 3 phases: screening, treatment and follow-up.
# The Full Analysis Set (FAS) will be used for the efficacy analysis on OS and PFS1. All subjects who are randomized will be included in the FAS. For time to event endpoints including OS and PFS1 log-rank test stratified by randomization stratification factors including liver metastasis, baseline ECOG PS and regions of the world at baseline will be used to compare the 2 treatment arms. The hazard ratio and corresponding 95% confidence interval from the stratified Cox proportional hazards regression model will also be presented. The median OS, PFS1 and DOR will be estimated using the Kaplan-Meier method and will be reported along with the corresponding 95% confidence interval by treatment arm.
# Efficacy analysis for OS and PFS was conducted on the FAS. The interpretation of results from statistical tests was based on the FAS. Efficacy analysis for response related endpoints, e.g., ORR and DCR was conducted on RES.
# OS was formally tested at both interim analysis and final analysis. At either interim or final analysis, the formal hypothesis tests on the selected secondary endpoints including PFS1, ORR and DCR, were performed hierarchically (per the order of PFS1->ORR->DCR) only when the OS analysis is rejected. The details about the significance levels at interim analysis and final analysis for each efficacy endpoints (OS, PFS1, ORR and DCR) is specified in SAP.
# The primary efficacy endpoint of OS was analyzed using the log-rank test stratified by ECOG PS (0 vs 1), regions of the world (Western EU, US or the rest of world) and liver metastasis (yes or no). Randomized treatment and the strata used for randomization was used for the analysis. In addition, the stratified Cox proportional hazard model was used to estimate the hazard ratio and the corresponding 95% confidence interval. The median OS was estimated using the Kaplan-Meier method and will be reported along with the corresponding 95% confidence interval by treatment arm.
# The primary analysis was performed using the FAS.
# Additional analyses such as unstratified log-rank test and OS analyses adjusting the crossover effect may be conducted, if appropriate. Details are specified in the SAP.
# [2] = Phase 1 study of EV: pharmacokinetics; type: in vivo, human
# Source text: Based on pharmacokinetic data from the phase 1 study, the half-life of EV is ˜1-2 days. […] Minimal (<50%) intra-cycle accumulation of MMAE was observed. It is anticipated that the dosing schedule in the study will maintain ADC exposures over each 28-day cycle, contributing to a favorable balance of activity and safety, as observed in the phase 1 trial.
substance,measurement,setting,value
enfortumab vedotin,"HR (95% CI), OS sensitivity analysis",[1]; Adjusting in chemotherapy arm based on the rank preserving structural failure time method,0.705 (0.516-0.853)
same,Median OS,[1]; All,12.88 mo
same,"OS, EV vs SC HR",[1]; All,0.702
same,"Overall survival (OS) Events, %",[1]; All,(44.5) %
same,"Overall survival (OS) Events, n/N",[1]; All,134/301
same,Median OS,"[1]; FAS, Kaplan-Meier",12.88 Months
same,"Deaths, %","[1]; FAS, interim analysis",(44.5%)
same,# of Deaths,"[1]; Full Analysis Set, data cutoff 15 Jul. 2020",134
same,"HR (95% CI), OS sensitivity analysis",[1]; Inverse probability of censoring weights method,0.630 (0.435-0.912)
same,reduction in risk of death,[1]; PADCEV vs chemotherapy,30%
same,"HR (95% CI), OS sensitivity analysis",[1]; Unstratified analysis,0.719 (0.572-0.903)
same,estimated percentage of patients alive at 12 months,[1]; in vivo,51.5%
same,overall survival (OS) compared with standard chemotherapy,[1]; in vivo,superior
same,primary endpoint of overall survival compared to chemotherapy,[1]; in vivo,met its primary endpoint of overall survival
same,risk of death lower with enfortumab vedotin than with chemotherapy,[1]; median follow-up 11.1 months,30%
same,intra-cycle accumulation of ADC,"[2]; dosing on Days 1, 8 and 15 of every 28-day cycle, any dose level",< 30%
same,half-life,[2]; phase 1 study,24 to 48 h
